Experimental findings from patent US20120064008A1, “COMPOSITIONS FOR THE TREATMENT OF METASTATIC CANCER AND METHODS OF USE THEREOF” (priority 2009, published 2012) are described below.

The test system of one assay is DU145-TR cells. The assay can be described thus: % apoptotic cells, DU145-TR. The class given is cell-based, human. As to conditions: 1 μM.
Assay [1] concerns AT6.1 Dunning rat prostate carcinoma. The assay can be described thus: Tumor burden by blood Gaussia luciferase assay in AT6.1 model. It counts as in vivo, nu/nu mice. As to conditions: 100 mg/kg; until day 22; FIG. 9. From the text: Similar to the survival model, treatment was not begun until day 5 when micrometastases were confirmed growing in the lung. For this approach, the AT6.1 cells were engineered to express secreted Gaussia luciferase enzyme. Using measurement of luciferase activity from the peripheral blood as an indicator of overall tumor burden, a significant reduction of tumor burden in the lungs of benzimidazole-treated animals when compared to vehicle-treated mice was observed. After 22 days, the mice were sacrificed and the lungs examined for viable tumor colonies.
Blood Gaussia luciferase assay was performed as described in the literature. Briefly, 10-20 μL peripheral blood was collected from the animals once a week via the retro-orbital vein. Secreted GAR luciferase activity was measured using a luminometer by adding 100 μL of 100 μM coelentrazine (Prolume, Nanolight, #303) to 5 μL blood and 2 μL of 20 mM EDTA. Relative luciferase reading from the blood collected represents the tumor burden in each animal. The reading was performed with blood collected at day 19 post inoculation when all mice were still alive.

For assay [2], the system named is PC-3MLN4 cells. The assay can be described thus: Normalized mitotic index (histone H3 phospho-Serine-28), PC-3MLN4. To be noted: Homo sapiens, read-out: Normalized mitotic index PC-3MLN4, at 1 μM; normalized against vehicle-treated cells. The class given is cell-based. From the text: (§1) The mitotic index for each agent was normalized against those obtained from vehicle-treated cells, and compared with the activity of paclitaxel, a known inducer of mitotic arrest.

The next assay has as its system PC-3M cells. The assay can be described thus: Normalized mitotic index (histone H3 phospho-Serine-28), PC-3M. As to conditions: Homo sapiens. The class given is cell-based.
Excerpt: as §1

In assay [3] the test system is AT6.1 Dunning rat prostate carcinoma. The assay can be described thus: Survival in intravenous AT6.1 Dunning rat prostate carcinoma lung metastasis model. The class given is in vivo, nu/nu mice. To be noted: for average survival time: FIG. 5 (carrier only 20.4 days); for survival: 100 mg/kg, FIG. 6 (control 24.25 days). The procedure:
Many anti-tumor drugs are tested only for their ability to prevent primary tumor growth or to prevent the dissemination of metastatic cells. To accomplish this, the drug is usually administered shortly after the primary tumor is established. […] The benzimidazoles described herein were evaluated in an experimental metastases model in the lungs of nude mice following tail-vein injection of Dunning rat AT6.1 prostate carcinoma. […] In order to achieve greater bioavailability, we first solubilized benzimidazoles in DNTC formulation and then diluted with saline prior to injection.
Inbred male nu/nu mice age 6-8 weeks were obtained from Massachusetts General Hospital (Boston, Mass.). The mice were virus antibody free, age and weight matched for experimental use and fed with a balanced rodent diet ad libitum. AT6.1 Dunning rat prostate cells were maintained as described above. 1×10^4 log-phase cells were injected via tail vein in 0.1 mL Hanks solution. Vehicle or drug treatment was started on day 5 post inoculation and given three times a week (Monday, Wednesday and Friday) via intraperitoneal injection in 0.5 mL volume. Benzimidazole drugs were prepared in the combination carrier [DMSO (12.5%), NMP (37.5%), TWEEN®-80 (25%) and CrEL (25%)] and diluted in saline. Vehicle control was prepared by diluting the combination carrier with saline.
During the course of treatment, the mice were monitored for toxicity by measuring body weight. […] Animals were euthanized with CO2 and tissues were collected for further analysis. The animals and experiments used in these studies were approved by the institutional animal care committee according to Children's Hospital Boston ARCH guidelines.
To distinguish differences in survival between these groups, the percent increase in life span (ILS %), defined as the percent increase in the mean time to death of drug-treated animals over the corresponding time to death for vehicle-treated mice, was calculated.

Assay [4] concerns PC-3MLN4 cells. In words: Experimental bone metastasis model, PC-3MLN4 cells expressing luciferase, intraosseous. The class given is in vivo, immunocompromised mice. As to conditions: 100 mg/kg for two weeks. The procedure:
Using the metastatic prostate cancer PC-3MLN4 cells that expressed luciferase, the anti-tumor effects of benzimidazoles in a model of experimental bone metastasis were investigated. Cells were inoculated directly into a single tibia of immunocompromised mice via intraosseous injection. When bone lesions were confirmed to be growing via bioluminescent imaging, mice were randomized and treated with vehicle or with 100 mg/kg albendazole for two weeks. […] There was a significant difference in average luciferase signal between the two groups over the course of treatment (P<0.05).
At the end of study, the anatomical and radiographic characteristics of the bone lesions were evaluated with X-ray and micro-computerized tomography (CT) imaging.
Using the metastatic prostate cancer PC-3MLN4 cells that expressed luciferase, the anti-tumor effects of benzimidazoles in a model of experimental bone metastasis were investigated. Cells were inoculated directly into a single tibia of immunocompromised mice via intraosseous injection. When bone lesions were confirmed to be growing via bioluminescent imaging, mice were randomized and treated with vehicle or with 100 mg/kg albendazole for two weeks. […] There was a significant difference in average luciferase signal between the two groups over the course of treatment (P<0.05) (see FIG. 13).
At the end of study, the anatomical and radiographical characteristics of the bone lesions were evaluated with X-ray and micro-computerized tomography (CT) imaging.

For the next assay, the system named is DU-145TR cells. In words: Gene expression profiling, DU-145 and DU-145TR. It counts as cell-based, human. To be noted: DU-145TR vs DU-145, 2-fold cut off. From the text: In order to dissect the mechanisms underlying the anti-tumor effects of benzimidazoles in these cells, gene expression profiling was done comparing albendazole treated DU-145 and DU-145TR cells.

A further assay relates to AT6.1 lung metastases. The assay can be described thus: Ki-67 and caspase-3 staining of lung tumor sections. The class given is in vivo, mice. To be noted: 50 mg/kg, combination carrier; FIG. 10. How it is done: To investigate whether benzimidazoles treatment affects cell proliferation and apoptosis in vivo, immunohistochemical analysis of the cell proliferation marker, Ki-67 and of the apoptotic marker, activated caspase-3 was performed on mouse lung sections from each group.
Tumor cells in the lungs of rats treated with saline and 50 mg/kg fenbendazole (formulation in the combination carrier) were analyzed by Ki-67 and caspase-3 antibody staining. Tissues were collected and fixed in formalin before processed for paraffin embedding. Tissue sections were then processed for Ki-67 and caspase-3 antibody staining, using the protocol established at Dana Farber Cancer Institute/Harvard Cancer Center Research Pathology Core. At least five random 200× magnification images were photographed from each animal. Distinct and strong nuclear Ki67 staining of tumor cells were counted using Image J software (NIH, Bethesda, […].).

The subject of the next assay is lung metastases. The assay can be described thus: Lung metastasis model, survival. It counts as in vivo, mice. How it is done:
In the lung metastasis model, treatment was initiated 10 days after the animals were inoculated with tumor cells. At this time, the lungs were riddled with metastases. Formulations containing a benzimidazole were injected into the peritoneum three times per week. Half of the control mice died by day 27, only 17 days after the animals started receiving treatments. In contrast, half of the mice treated with fenbendazole were still alive on day 37 and one-third were still alive at day 45.

The mark [5] stands for this setting: 100 mg/kg i.p. three times a week, over vehicle-treated mice.

Entries after “also recorded” stand apart in the source; their conditions may differ. Like-named read-outs stand apart in the source and are kept apart here.

Turning to `CCCSc1ccc2nc(NC(=O)OC)[nH]c2c1` [Albendazole, albendazole], in the assay on DU145-TR cells, the “% Apoptotic cells (72 hours) DU145-TR” value was determined as 55.8%. Moreover, the “tumor burden compared to the control” value in [1] was “significant reduction in tumor burden”. The fold induction at 1 µM in the assay on PC-3MLN4 cells [2] is 1.8 to 2; in the assay on PC-3M cells (read-out: Normalized mitotic index PC-3M, at 1 μM, normalized against vehicle-treated cells), more than 1. Also, the figures for the average survival time in assay [3] (50 mg/kg i.p. three times a week from day 5) and in [3] (100 mg/kg i.p. three times a week from day 5) were 24.4 days and 32 days, respectively. The “percent increase in life span (ILS %)” value in assay [3] (setting [5]) was 59.7%; in assay [3] (250 mg/kg three times a week), 64%. In assay [3], the survival came out at 38.75 days. Besides, the “tumor growth (luciferase signal) compared to vehicle” value in the assay with PC-3MLN4 cells [4] was “reduced tumor growth”. For the same compound, the “Ki-67 labeling index of bone lesions” value in the assay on PC-3MLN4 cells [4] (P<0.005) is reported as “reduction”. Besides, the “apoptotic index of bone lesions (activated caspase-3 staining)” value with PC-3MLN4 cells [4] (P<0.005) was “increase”. In the assay on PC-3MLN4 cells [4] (end of study), the “bone integrity (X-ray and micro-CT imaging)” value is on record as “bone integrity was maintained”. Also, the “expression of ER stress signaling genes (ATF-2, ATF-3, HERPUD1, CHOP, ANKRD1, GADD45alpha)” value with DU-145TR cells is “differentially expressed”.

For `COC(=O)Nc1nc2ccc(Sc3ccccc3)cc2[nH]1` [Fenbendazole, fenbendazole], the “tumor cell proliferation (Ki67 staining) compared to control” value in the assay on AT6.1 lung metastases is “less proliferation of tumor cells; also recorded: marked reduction in tumor cell proliferation”. Besides, in the assay on DU145-TR cells, the “% Apoptotic cells (72 hours) DU145-TR” value was determined as 43.3%. In [1], the “tumor burden compared to the control” value is listed as “significant reduction in tumor burden”. Also, in the assay on lung metastases (i.p. three times per week from day 10 after inoculation), the “fraction of mice still alive at day 45” value is “one-third”. Also, the “day on which half of the mice were still alive” value in the assay with lung metastases (i.p. three times per week from day 10 after inoculation (half of control mice died by day 27)) amounted to 37 days. Further, the “prolonging the survival times compared with taxol” value with lung metastases (mouse, in vivo) is on record as “equivalent to taxol”. The fold induction at 1 µM in the assay on PC-3M cells (at 1 μM, normalized against vehicle-treated cells, read-out: Normalized mitotic index PC-3M) is more than 1. Besides, in assay [3] (setting [5]), the “percent increase in life span (ILS %)” value is recorded as 45.3%. In addition, the survival in assay [3] came to 35.25 days.
